Patent publication US20220213047A1, “CARBONIC ANHYDRASE INHIBITORS FOR TREATMENT OF NEISSERIA GONORRHOEAE INFECTION” (Purdue Research Foundation, priority 2021, published 2022)
≈ marks a conversion by molar mass, not a printed value.

Key:
Assay type in all cases: cell-based
Klebsiella spp. = test: MIC50 against pathogenic and commensal bacteria: Klebsiella spp.; details: Klebsiella spp. (4 strains); normal
Text: (§1) We have shown that CAIs display a narrow-spectrum of activity (Table 6). We have previously shown that CAIs have potential as anti-enterococcal agents for decolonization of the gut and treating systemic vancomycin-resistant enterococci (VRE) infections without affecting commensal strains common in the human microbiome or other pathogenic bacteria. […] The extremely narrow spectrum of this class of inhibitors would be a positive for clinical use as the molecules: 1) would not have deleterious effects on normal microbiota, and 2) would have less opportunity for resistance to arise to other important pathogenic strains aside from VRE.

[1] = system: intracellular N. gonorrhoeae; test: Intracellular clearance of N. gonorrhoeae in infected endocervical cells (End1/E6E7); details: 5×MIC, 24 hours
Text: Intracellular clearance of N. gonorrhoeae—N. gonorrhoeae is known to invade epithelial cells of the genital tract and cross the epithelial barrier into the subepithelial space^59. Previous studies have shown that N. gonorrhoeae can survive inside host cells and pass epithelial cell layers (a key step in causing disseminated infections)^60,61. Therefore, a drug candidate must also be able to kill intracellular N. gonorrhoeae in order to be an effective therapeutic. Also, we were concerned that CAIs have reduced activity in high-CO2 conditions and may not be suitable to treat intracellular infection. Thus, we examined CAIs ability to reduce the burden of intracellular N. gonorrhoeae present in infected endocervical cells^56.

Enterococcus = test: MIC50 against pathogenic and commensal bacteria: Enterococcus; details: Enterococcus (49 strains); normal
Text: as §1

L. gasseri = test: MIC50 against pathogenic and commensal bacteria: L. gasseri; details: Lactobacillus gasseri; L. gasseri (4 strains); normal
Text: as §1

L. jensenii = test: MIC50 against pathogenic and commensal bacteria: L. jensenii; details: Lactobacillus jensenii; L. jensenii (3 strains); normal
Text: as §1

N. gonorrhoeae = test: Multi-step resistance selection; details: over ten passages
Text: Frequency of mutation—multi-step mutation—We investigated N. gonorrhoeae's ability to develop resistance to CAIs using the multi-step resistance selection experiment^58.
N. gonorrhoeae cultures that grew at the highest concentrations of the compound are used as an inoculum for the subsequent culture.

`CCOc1ccc2nc(S(N)(=O)=O)sc2c1` [Ethoxzolamide] was tested, and the MIC50 (Klebsiella spp.) was greater than 256 µg/mL, the “reduction in N. gonorrhoeae inside infected endocervical cells” value [1] was 5.8 log10 and the MIC50 (Enterococcus) was 4 µg/mL (≈ 15.5 µM). The MIC50 (L. gasseri) was greater than 256 µg/mL, the MIC50 (L. jensenii) was greater than 256 µg/mL and the “increase in MIC” value (N. gonorrhoeae) was “no increase”.
